According to patent publication US20240209011A1, “HETEROAROMATIC PHOSPHONIUM SALTS FOR TREATING CANCER” (FLORATEK PHARMA S.A., priority 2021, published 2024):

How the values were obtained:
lymphoma PDX = assay: Activity against lymphoma PDX; type: cell-based; settings: lymphoma PDX growth; Table 17
Procedure: (§1) PDX-derived cell cultures were obtained from tumors explanted from mice and isolated by mechanical and enzymatic dissociation. […] Cells were harvested and seeded in 96-wells plates at a density of 1.25 to 5×10^3 cells/well for cytotoxicity assays. Cells were incubated 48 h at 37° C. prior to addition of test molecules and vehicle (DMSO, 0.1%) at desired final concentrations. Cell viability was assessed before drugs' addition (To) and 5 days after test molecules addition by measuring ATP cell content using CellTiter-Glo® Luminescent Cell Viability Assay (Promega) according to the manufacturer's instructions. Luciferase activity was measured on a luminometer (PerkinElmer® EnVision™). Each concentration of compounds was tested in triplicate.
(§2) Viability was calculated as a percentage of ATP value compared to vehicle treated controls.
(§3) For PDX primary cell cultures, the tumour tissue was washed with PBS containing antibiotic-antimycotic and non-tumour tissue and necrotic tumour tissues were separated. The tumour tissue was transferred to a new dish and cut into 1-2 mm^3 fragments, resuspended in RPMI-1640 medium and centrifuged at 1,200 rpm for 6 min at room temperature. The pelleted material was resuspended with 15 mL of Tumour Cell Digestion Solution and incubated at 37° C. for 1 hour with agitation. Following further addition of media, centrifugation and passage through a […] cell strainer, the homogenous cell mixture was layered onto 15 mL of Ficoll-Paque PLUS in a 50 mL conical tube and centrifuged for 15 min at 1,600 rpm. The interface cells were collected, washed with media, separated by centrifugation at 1,200 rpm. The cell pellet was resuspended in serum free media supplemented with growth factors. 10,000 cells/wells were plated in a 96 well plate and incubated at 37° C., 5% CO2, 95% air and 100% relative humidity overnight. The cytotoxicity assay was conducted as above. IC50 values represent absolute IC50.

lung PDX = assay: Activity against lung PDX; type: cell-based; settings: lung PDX growth; Table 16
Procedure: as §1, §2, §3

stomach PDX = assay: Activity against stomach PDX; type: cell-based; settings: stomach PDX growth; summary of Table 23
Procedure: as §1, §2, §3

head and neck PDX = assay: Activity against head and neck PDX; type: cell-based; settings: head and neck PDX growth; Table 11
Procedure: as §1, §2, §3

skin melanoma PDX = assay: Activity against skin melanoma PDX; type: cell-based; settings: skin melanoma PDX growth; text summary of Table 22
Procedure: as §1, §2, §3

panel of 30 kinases = assay: KINOMEscan primary screen; type: binding; settings: % Ctrl between 0 and 10 selected for Kd
Procedure: Selected compounds were screened for kinase inhibition using the KINOMEscan™ assay (Eurofins) which is based on a competition binding assay that quantitatively measures the ability of a compound to compete with an immobilized, active-site directed ligand. The assay was performed by combining three components: DNA-tagged kinase; immobilized ligand; and the test compound. The ability of the test compound to compete with the immobilized ligand was measured via quantitative PCR of the DNA tag.
Kinase-tagged T7 phage strains were prepared in an E. coli host derived from the BL21 strain. E. coli were grown to log-phase and infected with T7 phage and incubated with shaking at 32° C. until lysis. The lysates were centrifuged and filtered to remove cell debris. The remaining kinases were produced in HEK-293 cells and subsequently tagged with DNA for qPCR detection. Streptavidin-coated magnetic beads were treated with biotinylated small molecule ligands for 30 minutes at room temperature to generate affinity resins for kinase assays. The liganded beads were blocked with excess biotin and washed with blocking buffer (SeaBlock (Pierce), 1% BSA, 0.05% Tween 20, 1 mM DTT) to remove unbound ligand and to reduce non-specific binding. Binding reactions were assembled by combining kinases, liganded affinity beads, and test compounds in 1× binding buffer (20% SeaBlock, 0.17×PBS, 0.05% Tween 20, 6 mM DTT). Test compounds were prepared as 111× stocks in 100% DMSO. Kds were determined using an 11-point 3-fold compound dilution series with three DMSO control points. All compounds for Kd measurements are distributed by acoustic transfer (non-contact dispensing) in 100% DMSO. The compounds were then diluted directly into the assays such that the final concentration of DMSO was 0.9%. All reactions performed in polypropylene 384-well plate. Each was a final volume of 0.02 ml. The assay plates were incubated at room temperature with shaking for 1 hour and the affinity beads were washed with wash buffer (1×PBS, 0.05% Tween 20). […] The kinase concentration in the eluates was measured by qPCR. […]

SMILES | IC50 (lymphoma PDX) | IC50 (lung PDX) | IC50 (stomach PDX) | IC50 (head and neck PDX) | IC50 (skin melanoma PDX) | No. responsive kinases (panel of 30 kinases)
O=c1cc(-c2ccc(CCCC[P+](c3ccccc3)(c3ccccc3)c3ccccc3)cc2)oc2c3c(ccc12)OCO3.[Br-] [SND123, 4-[4-(6-oxo-[1,3]dioxolo[4,5-h]chromen-8-yl)phenyl]butyl-triphenylphosphonium bromide] | < 5 µM | < 20 µM | < 20 µM | < 10 µM | < 10 µM | 4
CCNC(=O)Oc1ccc2c(=O)cc(-c3ccc(CCCC[P+](c4ccccc4)(c4ccccc4)c4ccccc4)cc3)oc2c1OC(=O)NCC.[Br-] [SND124, 4-[4-[7,8-Bis(ethylcarbamoyloxy)-4-oxo-chromen-2-yl]phenyl]-butyltriphenylphosphonium bromide] | < 5 µM | < 20 µM | < 20 µM | < 10 µM | < 10 µM | –
O=c1cc(-c2ccc(CCCC[P+](c3ccccc3)(c3ccccc3)c3ccccc3)cc2)oc2c(O)c(O)ccc12 [SND118, 4-[4-(7,8-dihydroxy-4-oxo-chromen-2-yl)phenyl]butyltriphenyl-phosphonium bromide] | – | – | – | – | – | 1
COc1c(O)ccc2c(=O)cc(-c3ccc(CCCC[P+](c4ccccc4)(c4ccccc4)c4ccccc4)cc3)oc12.[Br-] [SND140, (4-(4-(7-hydroxy-8-methoxy-4-oxo-4H-chromen-2-yl)phenyl)butyl)triphenylphosphonium bromide] | < 5 µM | < 20 µM | < 20 µM | < 10 µM | < 10 µM | 4
CCNC(=O)Oc1ccc2c(=O)cc(-c3ccc(CCCC[P+](c4ccccc4)(c4ccccc4)c4ccccc4)cc3)oc2c1O.[Br-] [SND126A, 4-[4-[7-(Ethylcarbamoyloxy)-8-hydroxy-4-oxo-chromen-2-yl]phenyl]butyltriphenylphosphonium bromide] | < 5 µM | < 20 µM | < 20 µM | < 10 µM | < 10 µM | –
